Measurements: PMC12155096 (International Journal of Molecular Sciences, 2025)
Read-outs that look alike come from different tables or passages of the source.

What was measured:
human CYP2C9 [1] = molecular target: T1, human CYP2C9 (Homo sapiens, UniProt P11712); assay: biochemical
human CYP2C19 [2] = molecular target: T2, human CYP2C19 (Homo sapiens, UniProt P33261)
human CYP1A2 [3] = molecular target: T3, human CYP1A2 (Homo sapiens, UniProt P05177); assay: biochemical
T3 sequence (P05177 1-516): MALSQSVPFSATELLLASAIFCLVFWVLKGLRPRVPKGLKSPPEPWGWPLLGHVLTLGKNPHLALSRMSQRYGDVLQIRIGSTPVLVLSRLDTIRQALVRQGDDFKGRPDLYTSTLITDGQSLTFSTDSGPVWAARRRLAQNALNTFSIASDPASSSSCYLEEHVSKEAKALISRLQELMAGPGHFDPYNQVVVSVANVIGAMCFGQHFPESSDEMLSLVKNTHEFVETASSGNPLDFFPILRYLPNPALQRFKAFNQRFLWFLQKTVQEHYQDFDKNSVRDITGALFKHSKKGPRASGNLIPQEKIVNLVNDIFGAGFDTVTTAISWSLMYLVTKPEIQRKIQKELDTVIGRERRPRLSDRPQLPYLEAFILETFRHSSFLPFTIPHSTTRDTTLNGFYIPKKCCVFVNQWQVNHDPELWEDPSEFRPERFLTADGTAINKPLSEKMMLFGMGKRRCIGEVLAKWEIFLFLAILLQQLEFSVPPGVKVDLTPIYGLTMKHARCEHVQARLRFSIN

CYP3A4 = CYP3A4 (Homo sapiens, UniProt P08684)
human CYP2D6 = human CYP2D6 (Homo sapiens, UniProt P10635)
human CYP2C19 [4] = molecular target: T2, human CYP2C19; assay: biochemical
human CYP2C9 [5] = molecular target: T1, human CYP2C9
human CYP1A2 [6] = molecular target: T3, human CYP1A2
[7] = CYP2C9 AC50 (half-maximal activity concentration)
[8] = CYP1A2 AC50 (half-maximal activity concentration)
[9] = CYP2C19 AC50 (half-maximal activity concentration)

Chain of human CYP2D6 (P10635 whole entry): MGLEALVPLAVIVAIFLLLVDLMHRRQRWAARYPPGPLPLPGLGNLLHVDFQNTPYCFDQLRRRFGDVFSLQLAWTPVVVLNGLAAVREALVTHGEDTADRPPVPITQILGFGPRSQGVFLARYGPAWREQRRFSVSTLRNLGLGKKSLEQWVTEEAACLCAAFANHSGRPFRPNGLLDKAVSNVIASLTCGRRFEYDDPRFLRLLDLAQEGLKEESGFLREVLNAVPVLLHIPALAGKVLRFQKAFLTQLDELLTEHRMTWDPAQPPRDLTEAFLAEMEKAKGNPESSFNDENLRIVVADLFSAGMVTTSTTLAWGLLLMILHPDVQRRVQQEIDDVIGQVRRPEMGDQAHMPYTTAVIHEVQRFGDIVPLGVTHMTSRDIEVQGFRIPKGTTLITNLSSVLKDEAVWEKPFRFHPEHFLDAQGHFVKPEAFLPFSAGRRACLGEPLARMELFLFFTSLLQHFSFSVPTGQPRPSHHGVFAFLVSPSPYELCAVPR
Chain of CYP3A4 (P08684 whole entry): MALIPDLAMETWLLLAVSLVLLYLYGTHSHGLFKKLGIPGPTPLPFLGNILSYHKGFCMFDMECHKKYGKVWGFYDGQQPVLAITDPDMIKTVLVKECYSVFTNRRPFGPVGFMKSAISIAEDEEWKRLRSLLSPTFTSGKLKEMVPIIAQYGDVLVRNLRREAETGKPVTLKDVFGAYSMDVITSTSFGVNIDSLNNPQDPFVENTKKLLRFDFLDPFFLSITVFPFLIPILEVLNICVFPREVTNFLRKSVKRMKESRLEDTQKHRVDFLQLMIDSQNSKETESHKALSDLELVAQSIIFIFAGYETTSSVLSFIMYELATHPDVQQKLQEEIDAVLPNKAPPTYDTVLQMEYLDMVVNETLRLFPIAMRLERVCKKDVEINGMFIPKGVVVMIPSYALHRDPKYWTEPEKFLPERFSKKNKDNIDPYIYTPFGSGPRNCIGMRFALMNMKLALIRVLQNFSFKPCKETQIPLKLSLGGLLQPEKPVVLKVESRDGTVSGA
T2 sequence (P33261 whole entry): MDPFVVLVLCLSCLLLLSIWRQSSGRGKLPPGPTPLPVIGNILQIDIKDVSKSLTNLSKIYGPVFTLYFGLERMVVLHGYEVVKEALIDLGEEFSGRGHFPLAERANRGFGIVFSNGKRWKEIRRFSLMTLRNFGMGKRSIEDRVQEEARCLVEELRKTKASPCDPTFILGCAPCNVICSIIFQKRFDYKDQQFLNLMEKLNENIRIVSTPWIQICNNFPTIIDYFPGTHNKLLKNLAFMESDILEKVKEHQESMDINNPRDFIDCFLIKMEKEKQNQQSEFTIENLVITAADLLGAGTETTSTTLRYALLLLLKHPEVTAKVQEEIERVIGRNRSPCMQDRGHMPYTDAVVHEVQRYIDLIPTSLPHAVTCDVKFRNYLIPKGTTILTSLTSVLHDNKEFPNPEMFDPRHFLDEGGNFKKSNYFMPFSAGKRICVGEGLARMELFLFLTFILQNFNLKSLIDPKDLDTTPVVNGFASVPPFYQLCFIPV
T1 sequence (P11712 whole entry): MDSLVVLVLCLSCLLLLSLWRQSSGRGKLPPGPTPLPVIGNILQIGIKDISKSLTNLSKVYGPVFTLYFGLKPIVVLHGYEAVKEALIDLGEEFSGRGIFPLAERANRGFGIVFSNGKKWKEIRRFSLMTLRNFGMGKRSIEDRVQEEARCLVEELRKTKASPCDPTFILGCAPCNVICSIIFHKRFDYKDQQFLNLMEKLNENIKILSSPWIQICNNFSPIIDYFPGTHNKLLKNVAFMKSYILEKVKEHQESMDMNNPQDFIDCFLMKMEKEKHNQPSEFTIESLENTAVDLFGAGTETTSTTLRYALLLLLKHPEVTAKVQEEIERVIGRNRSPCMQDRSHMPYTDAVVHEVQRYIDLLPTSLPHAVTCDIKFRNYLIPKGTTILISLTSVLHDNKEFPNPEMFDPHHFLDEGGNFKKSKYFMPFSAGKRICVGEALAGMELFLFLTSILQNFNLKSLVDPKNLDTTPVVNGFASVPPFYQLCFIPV

| Compound | AC50 (human CYP2C9 [1]; [7]) | CYP2C19 AC50 (half-maximal activity concentration) (human CYP2C19 [2]) | AC50 (human CYP1A2 [3]; [8]) | CYP3A4 AC50 (half-maximal activity concentration) (CYP3A4) | CYP2D6 AC50 (half-maximal activity concentration) (human CYP2D6) | AC50 (human CYP2C19 [4]; [9]) | AC50 (human CYP2C9 [1]) | AC50 (human CYP1A2 [3]) | AC50 (human CYP2C19 [4]) | CYP2C9 AC50 (half-maximal activity concentration) (human CYP2C9 [5]) | CYP1A2 AC50 (half-maximal activity concentration) (human CYP1A2 [6]) |
| --- | --- | --- | --- | --- | --- | --- | --- | --- | --- | --- | --- |
| Oc1cc(Cl)c(Cl)cc1Cl [2,4,5-Trichlorophenol] | 22.4 µM | Inconclusive inhibitor | 20.8 µM | Inactive | Inactive |  |  |  |  |  |  |
| Oc1cc(Cl)ccc1Cl [2,5-Dichlorophenol] | 32.8 µM | Inconclusive inhibitor | 33.9 µM | Inactive | Inactive |  |  |  |  |  |  |
| Nc1c(Br)cc([N+](=O)[O-])cc1Br [2,6-Dibromo-4-nitroaniline] | 18.1 µM |  | 1.27 µM | Inactive | Inactive | 43.1 µM |  |  |  |  |  |
| CCC(C)c1ccccc1O (centres unmarked) [2-(Butan-2-yl)phenol] | 53.2 µM |  | 38.5 µM | Inconclusive inhibitor | Inactive | 9.46 µM |  |  |  |  |  |
| CCOc1ccccc1C(N)=O [2-Ethoxybenzamide] |  | Inactive |  | Inactive | Inactive |  | 31 ± 3.57 µM | 16.8 ± 1.09 µM |  |  |  |
| COc1cccc(O)c1 [3-Methoxyphenol] |  | Inactive |  | Inactive | Inactive |  | 40.4 µM | 49.3 µM |  |  |  |
| O=[N+]([O-])c1ccc(O)cc1C(F)(F)F [3-Trifluoromethyl-4-nitrophenol] | 34.1 µM |  | 56.6 µM | Inconclusive inhibitor | Inconclusive inhibitor | 27.9 µM |  |  |  |  |  |
| CC(C)(C)c1cccc(O)c1 [3-tert-Butylphenol] |  |  |  | Inactive | Inactive |  |  |  | 23.9 µM | Inconclusive inhibitor | Inconclusive inhibitor |
| CCC(C)c1ccc(O)cc1 (centres unmarked) [4-(Butan-2-yl)phenol] | 33.4 µM |  | 34.6 µM | Inactive | Inactive | 3.47 µM |  |  |  |  |  |
| CCN(CC)c1ccc(C=O)cc1 [4-(Diethylamino)benzaldehyde] |  |  |  | Inactive | Inconclusive inhibitor |  | 20.1 µM | 5.66 µM | 14.3 µM |  |  |
| Cc1cc(O)cc(C)c1Cl [4-Chloro-3,5-dimethylphenol] | 17.4 µM | Inconclusive inhibitor | 14.2 µM | Inactive | Inactive |  |  |  |  |  |  |
| Cc1cc(=O)oc2cc(O)ccc12 [4-Methylumbelliferone] | 14.6 µM | Inactive | 28.6 µM | Inactive | Inactive |  |  |  |  |  |  |
| CC(C)(C)c1ccc(OC(=O)c2ccccc2O)cc1 [4-tert-Butylphenyl salicylate] |  |  |  | Inactive | Inactive |  | 24.7 µM | 40.1 µM | 14.2 µM |  |  |
| O=[N+]([O-])c1ccc2c3c(cccc13)CC2 [5-Nitroacenaphthene] | 8.98 µM |  | 2.25 µM | Inconclusive inhibitor | Inactive | 33.6 µM |  |  |  |  |  |
| C[C@]12CC[C@@H]3c4ccc(O)cc4CC[C@H]3[C@@H]1CC[C@@H]2O [17beta-Estradiol] | 5.72 µM |  | 29.1 µM | Inconclusive activator | Inactive | 16.8 µM |  |  |  |  |  |
| CCNc1nc(NC(C)C)nc(OC)n1 [Atraton] | 38.5 µM |  | 28.4 µM | Inconclusive inhibitor | Inactive | 32.1 µM |  |  |  |  |  |
